Measurements reported in ChEMBL document CHEMBL1201862, “PubChem BioAssay data set” (2004).
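96-well plates; 48 h exposure; 5 concentrations. Endpoints by linear interpolation between flanking doses. Not reached: highest tested concentration assigned. The concentration for 50% growth inhibition is given as GI50.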 Calls of active or inactive are those of the source. Cut-off read from the data, not from the text of the source: active = GI50 up to about 1.1 µM and inactive = higher.

Experiments:
Assay in all cases: DTP human tumour cell line panel, 48 h
SK-MEL-2 = tested on: SK-MEL-2
U-251 = tested on: U-251
ACHN = tested on: ACHN
SW-620 = tested on: SW-620
SN12C = tested on: SN12C
CCRF-CEM = tested on: CCRF-CEM
HCC 2998 = tested on: HCC 2998
OVCAR-5 = tested on: OVCAR-5
NCI-H522 = tested on: NCI-H522
HCT-15 = tested on: HCT-15
TK-10 = tested on: TK-10
Malme-3M = tested on: Malme-3M
OVCAR-8 = tested on: OVCAR-8
UO-31 = tested on: UO-31
EKVX = tested on: EKVX
HCT-116 = tested on: HCT-116
M14 = tested on: M14

Cc1ccccc1NC(=O)C(=O)CC(=O)C1CCOC1=O (stereo not given) was tested, and the GI50 (SK-MEL-2) was > 100 µM (inactive), the GI50 (U-251) was > 100 µM (inactive) and the GI50 (ACHN) was > 100 µM (inactive). The GI50 (SW-620) was > 100 µM (inactive), the GI50 (SN12C) was > 100 µM (inactive) and the GI50 (CCRF-CEM) was > 100 µM (inactive). For the same compound, the GI50 (HCC 2998) was > 100 µM (inactive), the GI50 (OVCAR-5) was > 100 µM (inactive) and the GI50 (NCI-H522) was > 100 µM (inactive). The GI50 (HCT-15) was over 100 µM, the GI50 (TK-10) was > 100 µM (inactive) and the GI50 (Malme-3M) was > 100 µM (inactive). The GI50 (OVCAR-8) was > 100 µM (inactive), the GI50 (UO-31) was > 100 µM (inactive) and the GI50 (EKVX) was > 100 µM (inactive). The GI50 (HCT-116) was > 100 µM (inactive) and the GI50 (M14) was > 100 µM (inactive).
CCOC(=O)C(=O)CC(=O)C(Br)C(Br)c1ccc(Cl)cc1 (stereo not given) was tested, and the GI50 (SK-MEL-2) was > 100 µM (inactive), the GI50 (ACHN) was 36 µM (inactive) and the GI50 (SW-620) was 39.6 µM (inactive). For the same compound, the GI50 (SN12C) was 30.3 µM (inactive), the GI50 (CCRF-CEM) was 8.36 µM (inactive) and the GI50 (HCC 2998) was > 100 µM (inactive). The GI50 (OVCAR-5) was > 100 µM (inactive), the GI50 (NCI-H522) was 23.6 µM (inactive) and the GI50 (HCT-15) was 33.5 µM. For the same compound, the GI50 (TK-10) was 52.2 µM (inactive), the GI50 (Malme-3M) was 31.8 µM (inactive) and the GI50 (OVCAR-8) was 34.9 µM (inactive). The GI50 (UO-31) was > 100 µM (inactive), the GI50 (EKVX) was > 100 µM (inactive) and the GI50 (M14) was 21.8 µM (inactive).
In the case of CCOC(=O)/C(=C\c1ccc(N(CCC#N)CCC#N)cc1C)NC(=O)/C=C/c1ccccc1, the GI50 (SK-MEL-2) is reported as > 100 µM (inactive), the GI50 (U-251) is reported as > 100 µM (inactive) and the GI50 (ACHN) is reported as > 100 µM (inactive). For the same compound, the GI50 (SW-620) was > 100 µM (inactive), the GI50 (SN12C) was > 100 µM (inactive) and the GI50 (CCRF-CEM) was > 100 µM (inactive). The GI50 (HCC 2998) was 62.2 µM (inactive), the GI50 (OVCAR-5) was > 100 µM (inactive) and the GI50 (NCI-H522) was > 100 µM (inactive). For the same compound, the GI50 (HCT-15) was over 100 µM, the GI50 (TK-10) was > 100 µM (inactive) and the GI50 (Malme-3M) was > 100 µM (inactive). The GI50 (OVCAR-8) was > 100 µM (inactive), the GI50 (UO-31) was > 100 µM (inactive) and the GI50 (EKVX) was > 100 µM (inactive). For the same compound, the GI50 (HCT-116) was > 100 µM (inactive) and the GI50 (M14) was > 100 µM (inactive).
Cc1cccc(C(C)C)c1NC(=O)C(=O)C(C(=O)c1ccccc1F)C1OC(=O)c2ccccc21 (stereo not given) was tested, and the GI50 (SK-MEL-2) was 15.7 µM (inactive), the GI50 (U-251) was 7.16 µM (inactive) and the GI50 (ACHN) was 36.4 µM (inactive). The GI50 (SW-620) was 24.5 µM (inactive), the GI50 (SN12C) was 16.6 µM (inactive) and the GI50 (CCRF-CEM) was 6.19 µM (inactive). The GI50 (HCC 2998) was 13.7 µM (inactive), the GI50 (OVCAR-5) was 40 µM (inactive) and the GI50 (NCI-H522) was 13.8 µM (inactive). For the same compound, the GI50 (HCT-15) was 20.5 µM, the GI50 (TK-10) was 39.6 µM (inactive) and the GI50 (Malme-3M) was 9.82 µM (inactive). The GI50 (OVCAR-8) was 16.5 µM (inactive), the GI50 (UO-31) was 16.8 µM (inactive) and the GI50 (EKVX) was 32.7 µM (inactive). The GI50 (HCT-116) was 13.6 µM (inactive) and the GI50 (M14) was 16.8 µM (inactive).
CCOC(=O)COc1ccc(OC)c2c1C(=O)CCC2 was tested, and the GI50 (U-251) was > 100 µM (inactive), the GI50 (ACHN) was > 100 µM (inactive) and the GI50 (SW-620) was > 100 µM (inactive). For the same compound, the GI50 (SN12C) was > 100 µM (inactive), the GI50 (CCRF-CEM) was > 100 µM (inactive) and the GI50 (HCT-15) was over 100 µM. For the same compound, the GI50 (TK-10) was > 100 µM (inactive), the GI50 (OVCAR-8) was > 100 µM (inactive) and the GI50 (EKVX) was > 100 µM (inactive). For the same compound, the GI50 (HCT-116) was > 100 µM (inactive) and the GI50 (M14) was > 100 µM (inactive).
COC(=O)c1nc(NN)cc(O)c1CCCCCc1c(O)nc(NN)nc1C(=O)OC was tested, and the GI50 (SK-MEL-2) was > 100 µM (inactive), the GI50 (U-251) was > 100 µM (inactive) and the GI50 (ACHN) was > 100 µM (inactive). The GI50 (SW-620) was > 59.3 µM (inactive), the GI50 (SN12C) was > 100 µM (inactive) and the GI50 (CCRF-CEM) was > 100 µM (inactive). For the same compound, the GI50 (HCC 2998) was > 100 µM (inactive), the GI50 (OVCAR-5) was > 100 µM (inactive) and the GI50 (NCI-H522) was > 100 µM (inactive). For the same compound, the GI50 (HCT-15) was over 100 µM, the GI50 (TK-10) was > 100 µM (inactive) and the GI50 (Malme-3M) was > 100 µM (inactive). For the same compound, the GI50 (OVCAR-8) was > 100 µM (inactive), the GI50 (UO-31) was > 100 µM (inactive) and the GI50 (EKVX) was > 100 µM (inactive). For the same compound, the GI50 (HCT-116) was > 100 µM (inactive) and the GI50 (M14) was > 100 µM (inactive).
For CC(C)(C)[Si](Nc1ccccc1)(c1ccccc1)c1ccccc1, the GI50 (SK-MEL-2) was 18.4 µM (inactive), the GI50 (U-251) was 13.8 µM (inactive) and the GI50 (ACHN) was 16.2 µM (inactive). The GI50 (SW-620) was 17.4 µM (inactive), the GI50 (SN12C) was 15 µM (inactive) and the GI50 (CCRF-CEM) was 16 µM (inactive). For the same compound, the GI50 (HCC 2998) was 16.1 µM (inactive), the GI50 (NCI-H522) was > 10 µM (inactive) and the GI50 (HCT-15) was 15 µM. For the same compound, the GI50 (TK-10) was 14.5 µM (inactive), the GI50 (Malme-3M) was 22.1 µM (inactive) and the GI50 (OVCAR-8) was 17.7 µM (inactive). For the same compound, the GI50 (UO-31) was 5.79 µM (inactive), the GI50 (EKVX) was 16 µM (inactive) and the GI50 (HCT-116) was 7.91 µM (inactive). The GI50 (M14) was 14 µM (inactive).
